Experimental data as given in patent US11992012B2, “Diaminotriazine compounds” (BASF SE, priority 2018, dated 2024).

Experiments:
Assay in all cases: greenhouse pre-emergence herbicidal test
Type in all cases: in vivo
Conditions in all cases: 250 g/ha, scale 0 to 100
[1] = system: Alopercurus myosuroides
Description: (§1) The culture containers used were plastic flowerpots containing loamy sand with approximately 3.0% of humus as the substrate. The seeds of the test plants were sown separately for each species.
(§2) For the pre-emergence treatment, the active ingredients, which had been suspended or emulsified in water, were applied directly after sowing by means of finely distributing nozzles. The containers were irrigated gently to promote germination and growth and subsequently covered with transparent plastic hoods until the plants had rooted. This cover caused uniform germination of the test plants, unless this had been impaired by the active ingredients.
(§3) Depending on the species, the plants were kept at 10-25° C. or 20-35° C., respectively.
(§4) The test period extended over 2 to 4 weeks. During this time, the plants were tended, and their response to the individual treatments was evaluated.
(§5) Evaluation was carried out using a scale from 0 to 100. 100 means no emergence of the plants, or complete destruction of at least the aerial moieties, and 0 means no damage, or normal course of growth. A moderate herbicidal activity is given at values of at least 60, a good herbicidal activity is given at values of at least 70, and a very good herbicidal activity is given at values of at least 85.

[2] = system: Amaranthus retroflexus
Description: as §1, §2, §3, §4, §5

[3] = system: Echinocloa crus-galli
Description: as §1, §2, §3, §4, §5

[4] = system: Setaria faberi
Description: The culture containers used were plastic flowerpots containing loamy sand with approximately 3.0% of humus as the substrate. The seeds of the test plants were sown separately for each species. For the pre-emergence treatment, the active ingredients, which had been suspended or emulsified in water, were applied directly after sowing by means of finely distributing nozzles. The containers were irrigated gently to promote germination and growth and subsequently covered with transparent plastic hoods until the plants had rooted. This cover caused uniform germination of the test plants, unless this had been impaired by the active ingredients. […] The test period extended over 2 to 4 weeks. During this time, the plants were tended, and their response to the individual treatments was evaluated. Evaluation was carried out using a scale from 0 to 100. 100 means no emergence of the plants, or complete destruction of at least the aerial moieties, and 0 means no damage, or normal course of growth.

Row | Compound | herbicidal activity [1] [%] | herbicidal activity [2] [%] | herbicidal activity [3] [%] | herbicidal activity [4] [%]
1 | CC(C)(F)c1nc(N)nc(Nc2c(F)cccc2OCc2ccccc2)n1 [Example 4] | 100 | 100 | 100 | 100
2 | Nc1nc(Nc2c(F)cccc2OCc2ccccc2)nc(C2(F)CCCC2)n1 [Example 5] | 85 | 98 | 100 | 98
3 | Cc1ccc(COc2cccc(F)c2Nc2nc(N)nc(C(C)(C)F)n2)cc1 [Example 9] | 80 | 95 | 100 | 100
4 | COc1cccc(COc2cccc(F)c2Nc2nc(N)nc(C(C)(C)F)n2)c1 [Example 10] | 100 | 100 | 100 | 100
5 | CC(C)(F)c1nc(N)nc(Nc2c(F)cccc2OCc2cccc(F)c2)n1 [Example 11] | 100 | 100 | 100 | 100
6 | Nc1nc(Nc2c(F)cccc2OCc2cccc(F)c2)nc(C2(F)CCCC2)n1 [Example 18] | 70 | 70 | 70 | 85
7 | Nc1nc(Nc2c(F)cccc2OCc2ccccc2F)nc(C2(F)CCCC2)n1 [Example 19] | 70 | 80 |  | 85
8 | COc1ccc(COc2cccc(F)c2Nc2nc(N)nc(C(C)(C)F)n2)cc1 [Example 20] | 100 | 98 | 100 | 95
9 | CC(C)(C)c1nc(N)nc(Nc2c(F)cccc2OCc2ccccc2)n1 [Example 33] | 75 |  | 60 | 
10 | CC(C)(F)c1nc(N)nc(Nc2c(F)cccc2OCc2cnc(Cl)s2)n1 [Example 39] | 90 | 80 | 100 | 90
11 | CC(C)(F)c1nc(N)nc(Nc2c(F)cccc2OCc2ccc(F)c(F)c2)n1 [Example 45] | 80 |  | 80 | 70
12 | COc1cc(F)cc(COc2cccc(F)c2Nc2nc(N)nc(C(C)(C)F)n2)c1 [Example 54] | 90 |  | 100 | 
13 | CC(C)C(F)c1nc(N)nc(Nc2c(F)cccc2OCc2ccccc2)n1 (stereo not shown) [Example 65] | 95 |  | 95 | 
14 | CC(C)(F)c1nc(N)nc(Nc2c(F)cccc2OCc2c(Cl)cccc2Cl)n1 [Example 78] | 100 |  | 100 | 75
15 | CC(C)(F)c1nc(N)nc(Nc2c(F)cccc2OC(F)(F)c2ccccc2)n1 [Example 83] | 100 |  | 100 | 100
16 | CCc1ccc(COc2cccc(F)c2Nc2nc(N)nc(C(C)(C)F)n2)cc1 [Example 94] | 100 | 70 |  | 
17 | CC(C)(F)c1nc(N)nc(Nc2c(F)cccc2OCc2ccc(Cl)s2)n1 [Example 120] | 75 |  | 100 | 90
18 | CC(C)c1ccc(COc2cccc(F)c2Nc2nc(N)nc(C(C)(C)F)n2)cc1 [Example 143] | 90 | 100 |  | 
19 | CCOc1cccc(COc2cccc(F)c2Nc2nc(N)nc(C(C)(C)F)n2)c1 [Example 149] | 85 |  | 75 | 90
20 | CC(C)=C(F)c1nc(N)nc(Nc2c(F)ccc(F)c2OCc2ccccc2)n1 [Example 160] | 85 |  |  | 75
21 | CC(C)(F)c1nc(N)nc(Nc2c(F)c(Br)cc(F)c2OCc2ccccc2)n1 [Example 163] | 100 |  | 100 | 100
22 | COc1cccc(COc2c(F)cc(F)c(F)c2Nc2nc(N)nc(C(C)(C)F)n2)c1 [Example 164] | 100 |  | 100 | 100
23 | CC(C)(F)c1nc(N)nc(Nc2c(F)ccc(F)c2OCc2ccsc2)n1 [Example 174] | 100 |  | 100 | 100

Row | Compound | herbicidal activity [1] [%] | herbicidal activity [2] [%] | herbicidal activity [3] [%] | herbicidal activity [4] [%]
24 | CC(C)(F)c1nc(N)nc(Nc2c(F)cccc2OCc2c(F)cccc2Cl)n1 [Example 177] | 85 |  | 100 | 95
25 | COc1ccc(COc2c(F)cc(F)c(F)c2Nc2nc(N)nc(C(C)(C)F)n2)cc1 [Example 180] | 90 |  | 100 | 100
26 | Cc1ccccc1COc1c(F)cc(F)c(F)c1Nc1nc(N)nc(C(C)(C)F)n1 [Example 181] | 98 |  | 100 | 100
27 | Cc1cccc(COc2c(F)cc(F)c(F)c2Nc2nc(N)nc(C(C)(C)F)n2)c1 [Example 182] | 100 |  | 100 | 100
28 | Nc1nc(Nc2c(F)cccc2OCc2ccccc2)nc(C2(F)CC2)n1 [Example 184] | 85 | 95 | 98 | 
29 | COc1cccc(COc2ccc(F)c(F)c2Nc2nc(N)nc(C(C)(C)F)n2)c1 [Example 185] | 98 |  | 100 | 100
30 | COc1ccc(COc2ccc(F)c(F)c2Nc2nc(N)nc(C(C)(C)F)n2)cc1 [Example 186] | 85 |  | 98 | 
31 | Nc1nc(Nc2c(F)ccc(F)c2OCc2ccccc2)nc(C2(F)CC2)n1 [Example 187] | 85 |  | 100 | 100
32 | Nc1nc(Nc2c(F)ccc(F)c2OCc2ccccc2)nc(C(F)C2CC2)n1 (stereo not shown) [Example 189] | 98 |  | 100 | 100
33 | CCOc1ccc(COc2c(F)ccc(F)c2Nc2nc(N)nc(C(C)(C)F)n2)cc1 [Example 193] | 80 |  | 95 | 100
34 | CC(F)c1nc(N)nc(Nc2c(F)ccc(F)c2OCc2ccccc2)n1 (stereo not shown) [Example 196] | 98 |  | 100 | 100
35 | CC1(c2nc(N)nc(Nc3c(F)c(F)cc(F)c3OCc3ccccc3)n2)CCC1 [Example 201] | 100 |  | 100 | 100
36 | CC(C)(F)c1nc(N)nc(Nc2c(F)c(F)cc(F)c2OCc2ccccc2F)n1 [Example 203] | 100 |  | 100 | 100
37 | CC(C)(F)c1nc(N)nc(Nc2c(F)c(F)cc(F)c2OCc2ccc(F)cc2)n1 [Example 205] | 100 |  | 100 | 100
38 | CC(C)(F)c1nc(N)nc(Nc2c(F)c(F)cc(F)c2OCc2ccccc2C2CC2)n1 [Example 218] | 95 |  | 85 | 100
39 | COCc1ccc(COc2c(F)cc(F)c(F)c2Nc2nc(N)nc(C(C)(C)F)n2)cc1 [Example 220] | 98 |  | 95 | 90
40 | COC(C)(C)c1nc(N)nc(Nc2c(F)c(F)cc(F)c2OCc2cccc(C)c2)n1 [Example 227] | 90 |  | 75 | 85
41 | COC(C)c1nc(N)nc(Nc2c(F)c(F)cc(F)c2OCc2ccccc2F)n1 (stereo not shown) [Example 240] |  | 100 | 90 | 95
42 | COC(C)c1nc(N)nc(Nc2c(F)c(F)cc(F)c2OCc2cccc(F)c2)n1 (stereo not shown) [Example 241] |  | 100 | 85 | 85
43 | CCC(C)(F)c1nc(N)nc(Nc2c(F)c(F)cc(F)c2OCc2ccccc2)n1 (stereo not shown) [Example 247] |  | 100 | 100 | 100
44 | Cc1cccc(C)c1COc1c(F)cc(F)c(F)c1Nc1nc(N)nc(C(C)F)n1 (stereo not shown) [Example 255] | 90 |  | 95 | 90
45 | Nc1nc(Nc2c(F)c(F)cc(F)c2OCc2ccccc2)nc(C2(F)CCCCC2)n1 [Example 256] |  | 100 | 100 | 100
